Laboratory results as given in patent publication US6472348B1, “Pyridone derivatives and herbicides” (Kumiai Chemical Industry Co., Ltd., priority 1996, dated 2002).

Experiments:
barnyardgrass (Ec) [1] = test: Test Example 1: herbicidal effects by paddy field soil treatment; type: in vivo; details: 100 g of the active ingredient per 10 ares, 21st day after the application, index 0-5 of Table 47;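 further: grade of growth control; 5 = at least 90%; 4 = 70 to 90%; 3 = 50 to 70%; 2 = 30 to 50%; 1 = 10 to 30%; 0 = under 10%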
Outline: (§1)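 Scoring of herbicidal effect came 21 days after application of 100 g active ingredient per 10 ares to flooded (3 cm) paddy-soil pots sown with barnyardgrass, monochoria and bulrush, kept in a greenhouse.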

bulrush (Sc) = test: as above; type: in vivo; details: 100 g of the active ingredient per 10 ares, 21st day after the application, index 0-5 of Table 47;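 further: grade of growth control; 5 = at least 90%; 4 = 70 to 90%; 3 = 50 to 70%; 2 = 30 to 50%; 1 = 10 to 30%; 0 = under 10%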
Outline: as §1

monochoria (Mo) = test: as above; type: in vivo; details: 100 g of the active ingredient per 10 ares, 21st day after the application, index 0-5 of Table 47;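 further: grade of growth control; 5 = at least 90%; 4 = 70 to 90%; 3 = 50 to 70%; 2 = 30 to 50%; 1 = 10 to 30%; 0 = under 10%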
Outline: as §1

Digitaria ciliaris (Di) = test: Test Example 2: herbicidal effects by upland field soil treatment; type: in vivo; details: 100 g of the active ingredient per 10 ares;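 further: grade of growth control; 5 = at least 90%; 4 = 70 to 90%; 3 = 50 to 70%; 2 = 30 to 50%; 1 = 10 to 30%; 0 = under 10%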
Source text: (§2) (Test on Herbicidal Effects by Upland Field Soil Treatment)

barnyardgrass (Ec) [2] = test: as above; type: in vivo; details: 100 g of the active ingredient per 10 ares
Source text: as §2

[3] = tested on: common lambsquarters (Ch); test: as above; type: in vivo; details: 100 g of the active ingredient per 10 ares
Source text: as §2

pale smartweed (Po) [4] = test: as above; type: in vivo; details: 100 g of the active ingredient per 10 ares
Source text: as §2

rice flatsedge (Ci) [5] = test: as above; type: in vivo; details: 100 g of the active ingredient per 10 ares
Source text: as §2

slender amaranth (Am) [6] = test: as above; type: in vivo; details: 100 g of the active ingredient per 10 ares
Source text: as §2

Diaitaria ciliaris (Di) = test: Test Example 3: herbicidal effects by upland field foliage treatment; type: in vivo; set-up: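 grade of growth control; 5 = at least 90%; 4 = 70 to 90%; 3 = 50 to 70%; 2 = 30 to 50%; 1 = 10 to 30%; 0 = under 10%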
Outline: (§3)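 Test plants had been raised from seed for 2 weeks in a greenhouse, in soil-covered sand pots of 120 cm^2, and were returned there after spraying.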

barnyardgrass (Ec) [7] = test: as above; type: in vivo; set-up: scale not given here
Outline: as §3

[8] = tested on: common lambsquarters (Ch); test: as above; type: in vivo; set-up: scale not given here
Outline: as §3

pale smartweed (Po) [9] = test: as above; type: in vivo; set-up: scale not given here
Outline: as §3

rice flatsedge (Ci) [10] = test: as above; type: in vivo; set-up: scale not given here
Outline: as §3

slender amaranth (Am) [11] = test: as above; type: in vivo; set-up: scale not given here
Outline: as §3

wheat (Tr) = test: Test Example 9: crop plant selectivity by upland field foliage treatment (wheat), phytotoxicity; details: dose 1.6 g ai/10a, 14th day after treatment
Outline: (§4)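 Read-out: weed control and wheat injury, rated by a defined scoring standard 14 days after foliar application.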

China jute (Ab) [12] = test: Test Example 9: crop plant selectivity by upland field foliage treatment (wheat), herbicidal effects; type: in vivo; set-up: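 grade of growth control; 5 = at least 90%; 4 = 70 to 90%; 3 = 50 to 70%; 2 = 30 to 50%; 1 = 10 to 30%; 0 = under 10%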; details: dose 1.6 g ai/10a, 14th day after treatment
Outline: as §4

[13] = tested on: common lambsquarters (Ch); test: as above; type: in vivo; set-up: scale not given here; details: dose 1.6 g ai/10a, 14th day after treatment
Outline: as §4

pale smartweed (Po) [14] = test: as above; type: in vivo; set-up: scale not given here; details: dose 1.6 g ai/10a, 14th day after treatment
Outline: as §4

slender amaranth (Am) [15] = test: as above; type: in vivo; set-up: scale not given here; details: dose 1.6 g ai/10a, 14th day after treatment
Outline: as §4

corn (Ze) = test: Test Example 11: crop plant selectivity by upland field foliage treatment (corn), phytotoxicity; details: dose 1.6 g ai/10a
Procedure: (§5) (Test on Crop Plant Selectivity by Upland Field Foliage Treatment)
(§6) In a plastic pot (surface area: 600 cm^2) filled with sand, corn (Ze), pale smartweed (Po), slender amaranth (Am), common lambsquarters (Ch) and China jute (Ab) were sown and cultured in a green house for 2 weeks. […] The plants were then cultured in a green house, and the evaluation of the herbicidal effects and phytotoxicity was conducted on the 14th day after the treatment in accordance with the standards as identified in Table 47.

China jute (Ab) [16] = test: Test Example 11: crop plant selectivity by upland field foliage treatment (corn), herbicidal effects; type: in vivo; set-up: scale not given here; details: dose 1.6 g ai/10a
Procedure: as §5, §6

[17] = tested on: common lambsquarters (Ch); test: as above; type: in vivo; set-up: scale not given here; details: dose 1.6 g ai/10a
Procedure: as §5, §6

pale smartweed (Po) [18] = test: as above; type: in vivo; set-up: scale not given here; details: dose 1.6 g ai/10a
Procedure: as §5, §6

slender amaranth (Am) [19] = test: as above; type: in vivo; set-up: scale not given here; details: dose 1.6 g ai/10a
Procedure: as §5, §6

[20] = evaluated on the 21st day after application
[21] = 100 g active ingredient per 10 ares, evaluated 14th day after treatment
[22] = upland field foliage treatment, 14th day after treatment
[23] = upland field foliage treatment (corn test), 14th day after treatment
[24] = 100 g of the active ingredient per 10 ares, evaluated on the 14th day after treatment
[25] = 21st day after the application, index 0-5 of Table 47

Row | Compound | Herbicidal effects Ec (barnyardgrass (Ec) [1]) | Herbicidal effects Sc (bulrush (Sc)) | Herbicidal effects Mo (monochoria (Mo)) | Herbicidal effects Di (Digitaria ciliaris (Di); [20]) | Herbicidal effects Ec (barnyardgrass (Ec) [2]; [20]) | Herbicidal effects Ch [3, 20] | Herbicidal effects Po (pale smartweed (Po) [4]; [20]) | Herbicidal effects Ci (rice flatsedge (Ci) [5]; [20]) | Herbicidal effects Am (slender amaranth (Am) [6]; [20]) | Herbicidal effects Di (Diaitaria ciliaris (Di); [21]) | Phytotoxicity Tr (wheat (Tr)) | Herbicidal effects Ab (China jute (Ab) [12]) | Herbicidal effects Ch [13] | Herbicidal effects Po (pale smartweed (Po) [14]) | Herbicidal effects Am (slender amaranth (Am) [15]) | Phytotoxicity Ze (corn (Ze); [22]) | Herbicidal effects Ab (China jute (Ab) [16]; [23]) | Herbicidal effects Ch [17, 23] | Herbicidal effects Po (pale smartweed (Po) [18]; [23]) | Herbicidal effects Am (slender amaranth (Am) [19]; [23]) | also measured
1 | Cn1c(C(F)(F)F)ccc(-c2cc(COC3CCCC3)c(Cl)cc2F)c1=O [Compound 1-201] | 5 | 5 | 5 | 5 | 5 | 5 | 5 | 5 | 5 | 5 | 2 | 5 | 5 | 5 | 5 | 2 | 5 | 5 | 5 | 5 | Herbicidal effects Ec (barnyardgrass (Ec) [7]; [21]): 4; Herbicidal effects Ch [8, 21]: 5; Herbicidal effects Po (pale smartweed (Po) [9]; [21]): 5; Herbicidal effects Ci (rice flatsedge (Ci) [10]; [21]): 5; Herbicidal effects Am (slender amaranth (Am) [11]; [21]): 5
2 | CCCc1cc2c(Cl)cc(F)c(-c3ccc(C(F)(F)F)n(C)c3=O)c2o1 [Compound 5-3] | 5 | 5 | 5 | 5 | 5 | 5 | 5 | 5 | 5 | 5 | 1 | 5 | 5 | 5 | 5 | – | – | – | – | – | Herbicidal effects Ec (barnyardgrass (Ec) [7]; [21]): 5; Herbicidal effects Ch [8, 21]: 5; Herbicidal effects Po (pale smartweed (Po) [9]; [21]): 5; Herbicidal effects Ci (rice flatsedge (Ci) [10]; [21]): 5; Herbicidal effects Am (slender amaranth (Am) [11]; [21]): 5; Phytotoxicity Ze (corn (Ze); corn, foliage treatment, evaluated on 14th day after treatment, index per Table 47): 2; Herbicidal effects Ab (China jute (Ab) [16]; China jute, foliage treatment, evaluated on 14th day after treatment, index per Table 47): 5; Herbicidal effects Ch ([17]; common lambsquarters, foliage treatment, evaluated on 14th day after treatment, index per Table 47): 5; Herbicidal effects Po (pale smartweed (Po) [18]; pale smartweed, foliage treatment, evaluated on 14th day after treatment, index per Table 47): 5; Herbicidal effects Am (slender amaranth (Am) [19]; slender amaranth, foliage treatment, evaluated on 14th day after treatment, index per Table 47): 5
3 | CC(C#N)Oc1cc(-c2ccc(C(F)(F)F)n(C)c2=O)c(F)cc1Cl (stereo not shown) [1-176] | 5 | 5 | 5 | 5 | 5 | 5 | 5 | 5 | 5 | – | 1 | 5 | 5 | 5 | 5 | 1 | 5 | 5 | 5 | 5 | Herbicidal effects Di (Diaitaria ciliaris (Di); [24]): 5; Herbicidal effects Ec (barnyardgrass (Ec) [7]; [24]): 5; Herbicidal effects Ch [8, 24]: 5; Herbicidal effects Po (pale smartweed (Po) [9]; [24]): 5; Herbicidal effects Ci (rice flatsedge (Ci) [10]; [24]): 5; Herbicidal effects Am (slender amaranth (Am) [11]; [24]): 5
4 | Cn1c(C(F)(F)F)ccc(-c2cc3c(cc2F)sc(=O)n3C)c1=O [Compound 3-6] | 5 | 5 | 5 | 5 | 5 | 5 | 5 | 5 | 5 | 5 | 2 | 5 | 5 | 5 | 5 | 2 | 5 | 5 | 5 | 5 | Herbicidal effects Ec (barnyardgrass (Ec) [7]; [21]): 5; Herbicidal effects Ch [8, 21]: 5; Herbicidal effects Po (pale smartweed (Po) [9]; [21]): 5; Herbicidal effects Ci (rice flatsedge (Ci) [10]; [21]): 5; Herbicidal effects Am (slender amaranth (Am) [11]; [21]): 5
5 | COCOCc1cc(-c2ccc(C(F)(F)F)n(C)c2=O)c(F)cc1Cl [Compound 1-200] | 5 | 5 | 5 | 5 | 5 | 5 | 5 | 5 | 5 | 5 | 2 | 5 | 5 | 5 | 5 | 2 | 5 | 5 | 5 | 5 | Herbicidal effects Ec (barnyardgrass (Ec) [7]; [21]): 5; Herbicidal effects Ch [8, 21]: 5; Herbicidal effects Po (pale smartweed (Po) [9]; [21]): 5; Herbicidal effects Ci (rice flatsedge (Ci) [10]; [21]): 5; Herbicidal effects Am (slender amaranth (Am) [11]; [21]): 5
6 | C=CCN1C(=O)COc2ccc(-c3ccc(C(F)(F)F)n(C)c3=O)cc21 [2-31] | 5 | 5 | 5 | 5 | 5 | 5 | 5 | 5 | 5 | 5 | 2 | 5 | 5 | 5 | 5 | 2 | 5 | 5 | 5 | 5 | Herbicidal effects Ec (barnyardgrass (Ec) [7]; [21]): 5; Herbicidal effects Ch [8, 21]: 5; Herbicidal effects Po (pale smartweed (Po) [9]; [21]): 5; Herbicidal effects Ci (rice flatsedge (Ci) [10]; [21]): 5; Herbicidal effects Am (slender amaranth (Am) [11]; [21]): 5
7 | C=CCn1c(=O)sc2cc(F)c(-c3ccc(C(F)(F)F)n(C)c3=O)cc21 [Compound 3-5] | 5 | 5 | 5 | 5 | 5 | 5 | 5 | 5 | 5 | 5 | 1 | 5 | 5 | 5 | 5 | 2 | 5 | 5 | 5 | 5 | Herbicidal effects Ec (barnyardgrass (Ec) [7]; [21]): 5; Herbicidal effects Ch [8, 21]: 5; Herbicidal effects Po (pale smartweed (Po) [9]; [21]): 5; Herbicidal effects Ci (rice flatsedge (Ci) [10]; [21]): 5; Herbicidal effects Am (slender amaranth (Am) [11]; [21]): 5
8 | C#CCNc1cc(-c2ccc(C(F)(F)F)n(C)c2=O)c(F)cc1Cl [1-62] | 5 | 5 | 5 | – | – | – | – | – | – | – | 2 | 5 | 5 | 5 | 5 | 2 | 5 | 5 | 5 | 5 | Herbicidal effects Di (Digitaria ciliaris (Di); [25]): 5; Herbicidal effects Ec (barnyardgrass (Ec) [2]; [25]): 5; Herbicidal effects Ch [3, 25]: 5; Herbicidal effects Po (pale smartweed (Po) [4]; [25]): 5; Herbicidal effects Ci (rice flatsedge (Ci) [5]; [25]): 5; Herbicidal effects Am (slender amaranth (Am) [6]; [25]): 5; Herbicidal effects Di (Diaitaria ciliaris (Di); [24]): 5; Herbicidal effects Ec (barnyardgrass (Ec) [7]; [24]): 5; Herbicidal effects Ch [8, 24]: 5; Herbicidal effects Po (pale smartweed (Po) [9]; [24]): 5; Herbicidal effects Ci (rice flatsedge (Ci) [10]; [24]): 5; Herbicidal effects Am (slender amaranth (Am) [11]; [24]): 5
9 | Cn1c(C(F)(F)F)ccc(-c2cc(OC3CCOC3)c(Cl)cc2F)c1=O (stereo not shown) [1-162] | 5 | 5 | 5 | – | – | – | – | – | – | – | 2 | 5 | 5 | 5 | 5 | 2 | 5 | 5 | 5 | 5 | Herbicidal effects Di (Digitaria ciliaris (Di); [25]): 5; Herbicidal effects Ec (barnyardgrass (Ec) [2]; [25]): 5; Herbicidal effects Ch [3, 25]: 5; Herbicidal effects Po (pale smartweed (Po) [4]; [25]): 5; Herbicidal effects Ci (rice flatsedge (Ci) [5]; [25]): 5; Herbicidal effects Am (slender amaranth (Am) [6]; [25]): 5; Herbicidal effects Di (Diaitaria ciliaris (Di); [24]): 5; Herbicidal effects Ec (barnyardgrass (Ec) [7]; [24]): 5; Herbicidal effects Ch [8, 24]: 5; Herbicidal effects Po (pale smartweed (Po) [9]; [24]): 5; Herbicidal effects Ci (rice flatsedge (Ci) [10]; [24]): 5; Herbicidal effects Am (slender amaranth (Am) [11]; [24]): 5
10 | COCN1C(=O)COc2cc(F)c(-c3ccc(C(F)(F)F)n(C)c3=O)cc21 [Compound 2-19] | 5 | 5 | 5 | 5 | 5 | 5 | 5 | 5 | 5 | 5 | 1 | 5 | 5 | 5 | 5 | 1 | 5 | 5 | 5 | 5 | Herbicidal effects Ec (barnyardgrass (Ec) [7]; [21]): 5; Herbicidal effects Ch [8, 21]: 5; Herbicidal effects Po (pale smartweed (Po) [9]; [21]): 5; Herbicidal effects Ci (rice flatsedge (Ci) [10]; [21]): 5; Herbicidal effects Am (slender amaranth (Am) [11]; [21]): 5
